Test results from publication PMC9030254, “Target Hopping from Protein Kinases to PXR: Identification of Small-Molecule Protein Kinase Inhibitors as Selective Modulators of Pregnane X Receptor from TüKIC Library” (Cells, 2022).
“And” between values parts separate entries of the source, which are not always exact repeats. Identical values can stand only once.

Experiments:
ABCB1 = test: PXR target gene mRNA expression in LS174T cells (RT-qPCR); settings: for effect on rifampicin-mediated induction of ABCB1: 10 µM compound + 10 µM rifampicin, 72 h; for expression of ABCB1 mRNA: 10 µM single treatment, 48 h (109) or 72 h (73, 100)
Experimental: In chemical treatments, phenol red-free DMEM was used, and regular FBS was replaced by dextran-coated charcoal-treated FBS. For gene expression analyses, 0.3 × 10^6 LS174T cells were seeded per well of a 12-well plate. The next day, chemical treatment was initiated for 48–72 h, with daily medium change.
Total RNA was prepared from LS174T and HepaRG cells using the NucleoSpin RNA kit (Macherey-Nagel, Düren, Germany). RNA integrity was analyzed by formaldehyde-agarose gel electrophoresis. First strand cDNA was synthesized as described earlier [37]. Relative quantification analyses were conducted with TaqMan RT-PCR utilizing the BioMark HD system and FLEX Six Gene Expression Integrated Fluidic Circuits (Fluidigm, South San Francisco, CA, USA) as described previously [34]. TaqMan gene expression assays were either the commercially available predesigned assays Hs00184500_m1 (ABCB1) and Hs00604506_m1 (CYP3A4) (Thermo Fischer Scientific) or have been described previously: CYP2B6 [31] and 18S rRNA [39]. Data were analyzed as described previously [37]. Gene expression levels were normalized to respective 18S rRNA levels.

CYP3A4 = test: as above; settings: 10 µM single treatment, 48 h (109) or 72 h (73, 100)
PXR LBD = biological target: T1, PXR LBD (Homo sapiens, UniProt O75469); test: Mammalian two-hybrid PXR LBD assembly assay; assay type: cell-based; settings: HepG2, 10 µM, 24 h
T1 construct: GAL4-DBD/PXR(132–188); VP16-AD/PXR(189–434); expressed in transfected cells; host or cells: HepG2
T1 sequence (O75469 132-188): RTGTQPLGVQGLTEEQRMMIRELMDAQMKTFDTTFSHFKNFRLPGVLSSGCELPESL
T1 sequence (O75469 189-434): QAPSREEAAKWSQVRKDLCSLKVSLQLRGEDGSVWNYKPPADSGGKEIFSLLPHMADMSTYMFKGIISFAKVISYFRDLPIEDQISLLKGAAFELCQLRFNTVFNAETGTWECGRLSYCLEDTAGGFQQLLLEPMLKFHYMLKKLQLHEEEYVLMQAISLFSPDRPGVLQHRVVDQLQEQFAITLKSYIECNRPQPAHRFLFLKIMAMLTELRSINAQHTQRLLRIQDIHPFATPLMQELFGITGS
Experimental: For the mammalian two-hybrid PXR ligand-binding domain assembly assay, 0.24 µg pGL4-G5, 0.01 µg pMetLuc2control, and 0.03 µg each of expression plasmids encoding GAL4-DBD/PXR(132–188) and VP16-AD/PXR(189–434) fusion proteins were used per well. Otherwise, batch transfection was performed as above with HepG2 cells.
Figure 5 PXR binding of phenylaminobenzosuberones is indicated by cellular PXR LBD assembly assay and inhibition of LBP-filled PXR mutant (A) Novel compounds induce PXR LBD assembly. […] (B) Effects of novel compounds on LBP-filled PXR mutant. HepG2 cells were transiently transfected with CYP3A4 reporter and expression plasmid encoding PXR(S208W/S247W/C284W) and treated as described above. […] Statistically significant differences are illustrated with asterisks. ** p ˂ 0.01, compared to respective treatments with DMSO analyzed by repeated measures one-way ANOVA with Dunnett’s multiple comparisons test.

PXR = biological target: T2, PXR (Homo sapiens, UniProt O75469); test: PXR-dependent CYP3A4 reporter gene assay, agonist mode; assay type: cell-based; set-up: expressed in transfected cells; host or cells: H-P cells (HepG2 stably transfected with PXR); settings: H-P cells; for activation of CYP3A4 reporter on their own, % of rifampicin activity: 10 µM compound alone, 10 µM rifampicin = 100%; for activation of CYP3A4 reporter on their own, % of rifampicin activity / EC50: 24 h; for EC50 / fold induction at 24 h: compound alone; for EC50: read-out: EC50, PXR activation; for fold induction at 24 h: human, vs DMSO, read-out: maximal effect (Emax), fold induction
T2 sequence (O75469 1-434): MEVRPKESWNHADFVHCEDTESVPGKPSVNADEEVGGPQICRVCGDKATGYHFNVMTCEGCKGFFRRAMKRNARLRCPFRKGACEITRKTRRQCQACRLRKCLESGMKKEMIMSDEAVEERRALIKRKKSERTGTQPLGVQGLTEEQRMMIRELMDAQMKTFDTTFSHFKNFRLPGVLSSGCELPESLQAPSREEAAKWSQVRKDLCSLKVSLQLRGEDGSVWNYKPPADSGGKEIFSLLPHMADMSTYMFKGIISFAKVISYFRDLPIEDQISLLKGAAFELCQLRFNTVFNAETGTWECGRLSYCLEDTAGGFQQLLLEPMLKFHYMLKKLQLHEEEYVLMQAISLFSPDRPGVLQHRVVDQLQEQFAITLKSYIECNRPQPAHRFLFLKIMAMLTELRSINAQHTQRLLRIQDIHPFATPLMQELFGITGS
Description: Figure 1 Identification of novel putative PXR ligands from the TüKIC library. (A) Workflow of the in silico screening and structures of the identified candidate ligands. (B) Concentration–response curves of the novel inhibitors for antagonism of PXR activity. (C) Concentration–response curves of the same compounds and 109 for PXR activation. […] Data are expressed as mean ± SD fold induction with respect to the DMSO-treated cells from three independent experiments. IC50 and EC50 values calculated with nonlinear regression using formula with 3 parameters (constraint bottom =1) using GraphPadPrism.
Supplementary Figure S1. Effects of 56 in silico screened TüKIC compounds (A) alone or (B) in combination […]
H-P cells were transiently
Luciferase activities were measured after 24 h treatment. Data is expressed as mean ± SD %. Activation was calculated according to Zhu et al. from three independent experiments with technical triplicates. Fold induction achieved by 10 μM […]
Green and red dashed lines represent the 100% and 50% activation, respectively.
(1 picture or pasted object on this page, not shown here)

CAR1 = biological target: T3, CAR1 (Homo sapiens, UniProt Q14994); test: Nuclear receptor selectivity reporter assay, CAR1; assay type: cell-based; settings: HepG2, 10 µM
T3 construct: expressed in transfected cells; host or cells: HepG2
T3 sequence (Q14994 1-348 isoform Q14994-2): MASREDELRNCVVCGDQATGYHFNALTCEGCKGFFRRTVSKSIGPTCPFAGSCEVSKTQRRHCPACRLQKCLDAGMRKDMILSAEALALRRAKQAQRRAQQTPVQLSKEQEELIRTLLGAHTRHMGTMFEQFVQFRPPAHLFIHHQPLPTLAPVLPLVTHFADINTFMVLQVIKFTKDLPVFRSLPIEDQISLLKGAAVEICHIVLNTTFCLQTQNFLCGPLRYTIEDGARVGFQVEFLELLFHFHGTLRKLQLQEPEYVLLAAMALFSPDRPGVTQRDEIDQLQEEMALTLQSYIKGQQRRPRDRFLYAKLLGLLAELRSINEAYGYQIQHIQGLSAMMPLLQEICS
Experimental: For testing nuclear receptor selectivity and LBP-filled PXR mutant activation, transient batch transfection was conducted as above, but with HepG2 cells and the following plasmids, with amounts per well of 0.23–0.27 µg pGL4-CYP3A4(-7830Δ7208-364) or pGL3(DR3)3Tk (as reporter for VDR), 0.01 µg pMetLuc2control, and 0.03 µg either CAR1, CAR3, VDR, or PXR(S208W/S247W/C284W) expression plasmids. In addition, 0.03 µg RXRα expression plasmid was added to CAR3 transfections. Metridia luciferase activity was measured from 10 µL of medium supernatant after adding 100 µL Renilla luciferase assay solution.
Figure 6 Selectivity of novel PXR ligands within the NR1I group of nuclear receptors. HepG2 cells were transiently transfected with CYP3A4 reporter and expression plasmids encoding (A) CAR1 or (B) CAR3, or (C) direct repeat (DR3)3 reporter and expression plasmid encoding VDR. Cells were treated with 0.2% DMSO or 10 µM chemicals as indicated. 1α,25(OH)2D3 was used at 1 µM.

Structure (SMILES)	effect on rifampicin-mediated induction of ABCB1 (ABCB1)	expression of ABCB1 mRNA (ABCB1)	expression of CYP3A4 mRNA (CYP3A4)	assembly of the PXR LBD (PXR LBD)	activation of CYP3A4 reporter on their own, % of rifampicin activity (PXR)	EC50 (PXR)	fold induction at 24 h (PXR)	suppression of constitutive activity of CAR1 (CAR1) [%]	activation of CAR1 (CAR1)
O=C(Cc1ccccc1)Nc1ccc(F)c(Nc2ccc3c(c2)CCCCC3=O)c1 [Compound 100]	suppressed its rifampicin-mediated induction	not induced	induced CYP3A4 expression, which was comparable to induction by rifampicin	induced the assembly of the PXR LBD	about 10%	0.15 µM	~2	30	–
Cc1ccc(NC(=O)Cc2ccccc2)cc1Nc1ccc2c(c1)CCCCC2=O [Compound 73]	suppressed its rifampicin-mediated induction	not induced	induced CYP3A4 expression, which was comparable to induction by rifampicin	induced the assembly of the PXR LBD	about 10%	0.41 µM	~2	30	–
O=C(Nc1ccc(F)c(Nc2ccc3c(c2)CCCCC3=O)c1)c1cccc(F)c1 [Compound 109]	–	induced to a lesser extent than by rifampicin	induced both genes	induced the assembly of the PXR LBD	–	44 µM and 29.2 µM	27	–	did not reach statistical significance
